According to patent publication US10059996B2, “Susceptibility to and stratification for monoaminergic antidepressants” (priority 2012, dated 2018):
Entries after “also recorded” stand apart in the source; their conditions may differ. Where a name gives a salt, the structure may show the parent alone.

Legend:
[1] = tested on: BDNF-gene exon-IV promoter construct; experiment: Luciferase-based reporter gene assay with BDNF-gene exon-IV promoter construct in SH-SY5Y cells; type: cell-based, human; settings: 48 h incubation, fluoxetine 3, 5, 10 μM or venlafaxine 10, 30, 50 μM; for change of luciferase reporter gene activity (luminescence), methylated construct: Sss1-methylated BDNF-gene exon-IV promoter in pGL4.14, SH-SY5Y; for change of luciferase reporter gene activity (luminescence), unmethylated construct: unmethylated BDNF-gene exon-IV promoter in pGL4.14, SH-SY5Y, hydrochloride
SH-Sy5Y cells = experiment: CellTiter-Glo Luminescent Cell Viability Assay (cytotoxic concentrations); settings: 10 μM, 30 μM, 50 μM Venlafaxine
Experimental: Cells were maintained at 37° C. in a humidified atmosphere of 5% CO2 in atmosphere. To determine cytotoxic concentrations of fluoxetine and venlafaxine by CellTiter-Glo Luminescent Cell Viability Assay (Promega, Madison, Wis.) 1.5×10^5 cells were plated in 96 well plates and grown for 24 hours. Three wells at a time were incubated with different amounts of fluoxetine hydrochloride or venlafaxine hydrochloride (both Sigma-Aldrich Germany, Taufkirchen), both solved in sterile deionized water at 4 mg/mL. […] After incubation for 24 hours cytotoxicity was documented by microscope photography and measured using a GloMax Multi+ Detection System (Promega, Madison, Wis.).

| SMILES | change of luciferase reporter gene activity (luminescence), methylated construct [1] | change of luciferase reporter gene activity (luminescence), unmethylated construct [1] | cytotoxicity at the concentrations used (SH-Sy5Y cells) |
| --- | --- | --- | --- |
| CNCCC(Oc1ccc(C(F)(F)F)cc1)c1ccccc1 (centres unmarked) [fluoxetine, fluoxetine hydrochloride] | did not change expression levels | decrease of reporter gene activity; also recorded: significant decrease of luciferase expression |  |
| COc1ccc(C(CN(C)C)C2(O)CCCCC2)cc1 (centres unmarked) [venlafaxine, venlafaxine hydrochloride] | did not change expression levels | decrease of reporter gene activity; also recorded: significant decrease of luciferase expression | non-toxic |
